Data taken from patent US20180064635A1, “COSMETIC COMPOSITION COMPRISING SLIME OF SNAIL FED WITH BERRY FRUITS AND PREPARATION METHOD THEREOF” (CREALAND CO., LTD, priority 2015, published 2018).

Key:
[1] = Active oxygen scavenging test (xanthine/xanthine oxidase, NBT); format: biochemical; conditions: snail slime filtrates, absorbance 540 nm
Experimental: In the active oxygen scavenging test, changes on the absorbance are measured using the oxidation of nitroblue tetrazolium (NBT) by active oxygen by using active oxygen generation upon enzymatic reaction of xanthine/xanthine oxidase (Sigma), thus the scavenging ability of the active oxygen can be confirmed.
2.4 ml of sodium carbonate (Na2CO3), 0.1 ml of xanthine (Sigma), 0.1 ml of ethylene diamine tetra acetic acid (EDTA), 0.1 ml of bovine serum albumin (BSA, Sigma), 0.1 ml of NBT, and 1 ml of the snail slime filtrates prepared in Examples 1 and 2 and Comparative Examples 1 and 2 were added, vortexing was carried out by using a vortex mixer (Type 37600 Mixer, Mini mix, USA), the mixture was left at 25° C. for 10 minutes. After 0.1 ml of xanthine oxidase was added and reacted at 25° C. for 20 minutes, the reaction was stopped by inputting 6 mM of CuCl2, and the absorbance was measured at the wavelength of 540 nm by using a microplate reader (UVT-06685, Thermo max, USA).
The control group in the active oxygen scavenging activity test was measured in the same manner by inputting third distilled water instead of the sample solution. […]
Active oxygen scavenging rate (%)=100−((absorbance of sample/absorbance of control group)×100)

[2] = Free radical scavenging test (DPPH); format: biochemical; conditions: snail slime filtrates, 37° C. 15 minutes, absorbance 540 nm
Experimental: A free radical scavenging test and a reactive oxygen scavenging test were performed in order to confirm the antioxidant effect of the snail slime filtrates prepared in Examples 1 and 2 and Comparative Examples 1 and 2, as a verifying test for a skin aging improvement effect.
The snail slime filtrates prepared in the above Examples 1 and 2 and Comparative Examples 1 and 2 were diluted with methanol in a predetermined concentration, and 1 ml of the dilution was mixed with 1 ml of a 0.1 mM 2,2-diphenyl-1-picryl-hydrazyl radical (DPPH, Sigma) solution. After the mixture leaves at 37° C. for 15 minutes, the absorbance was measured at the wavelength of 540 nm by using a microplate reader (Thermo max, USA).
In the above free radical scavenging test, the control group was measured In the same manner by inputting 1 ml of DPPH and 1 ml of methanol, and color correction values were obtained with respect to each of the sample and the control group by inputting 1 ml of methanol and 1 ml of sample.
SC50 is the concentration of the sample required to scavenge 50% of the free radicals, and the smaller value indicates the higher antioxidant activity.
Free radical scavenging rate (%)=100−((absorbance of sample/absorbance of control group)×100)

[3] = Skin moisturizing effect, capacitance measurement on flexor surface of the forearm; format: in vivo, human (30 females in their 20s and 30s); conditions: 1 wt % aqueous solution, 2.0 mg/cm2
Experimental: Measurement of moisturizing effect of snail slime filtrates prepared in Examples 1 and 2 and Comparative Examples 1 and 2 was carried out by a capacitance measurement scheme using an oil and moisture analyzer (WSK-P500U, Inforward. Inc., Japan). 1 wt % an aqueous solution of the snail slime filtrates prepared in Examples 1 and 2 and Comparative Examples 1 and 2 was compared with 1 wt % aqueous solution of hyaluronic acid sodium salt (Sigma) which is known to be excellent in a skin moisturizing effect based on various studies.
30 females in their 20s and 30s were targeted, a flexor surface of the forearm was allowed to acclimate to a constant temperature and humidity chamber (22° C. and 40-60% of relative humidity) for 20 minutes right before the test starts, and the moisture of the skin was constantly maintained. Then, after measuring the initial moisture content of an application site of each sample using the oil and moisture analyzer (WSK-P500U, Inforward. Inc., Japan), each of the samples at 2.0 mg/cm2 was applied at a different position for each examinee to minimize an error according to the flexor surface of the forearm. The skin moisture was firstly measured at time intervals of 10 minutes, 30 minutes, 50 minutes, 90 minutes, and 120 minutes after the application, and after 2 hours, the skin moisture was measured again.
Each measurement site was measured repeatedly for three times and skin moisture was calculated by the average value.

Compound	Active oxygen scavenging rate IC50 [1] [ppm]	Free radical scavenging rate SC50 [2] [ppm]	Moisture content subject to time after application ([3]; 10 minutes after application) [A.U]	Moisture content subject to time after application ([3]; 30 minutes after application) [A.U]	Moisture content subject to time after application ([3]; 50 minutes after application) [A.U]	Moisture content subject to time after application ([3]; 90 minutes after application) [A.U]	Moisture content subject to time after application ([3]; 120 minutes after application) [A.U]
Cc1cc(C(C)(C)C)c(O)c(C(C)(C)C)c1 [BHT]	154	125	–	–	–	–	–
hyaluronic acid sodium salt	–	–	61.31	58.24	57.21	55.87	52.11
